Experimental data reported in patent US7648979B2, “5-amido-(1H-indol-2-yl)-piperazin-1-yl-methanone derivatives” (Hoffmann-La Roche Inc., priority 2007, dated 2010).

Target: histamine 3 receptor (H3R) (Homo sapiens, UniProt Q9Y5N1)
Assay: Binding Assay with 3H-(R)α-methylhistamine (competition binding, membranes of human H3R-CHO cell line)
Details: competition with 3H(R)α-methylhistamine (1 nM), Ki calculated from IC50 by Cheng-Prusoff
Method: Binding Assay with ^3H-(R)α-methylhistamine
Saturation binding experiments were performed using HR3-CHO membranes prepared as described in Takahashi, K, Tokita, S., Kotani, H. (2003) J. Pharmacol. Exp. Therapeutics 307, 213-218.
An appropriate amount of membrane (60 to 80 μg protein/well) was incubated with increasing concentrations of ^3H(R)α-Methylhistamine di-hydrochloride (0.10 to 10 nM). Non specific binding was determined using a 200 fold excess of cold (R)α-Methylhistamine dihydrobromide (500 nM final concentration). The incubation was carried out at room temperature (in deep-well plates shaking for three hours). The final volume in each well was 250 μl. The incubation was followed by rapid filtration on GF/B filters (pre-soaked with 100 μl of 0.5% PEI in Tris 50 mM shaking at 200 rpm for two hours). The filtration was made using a cell-harvester and the filter plates were then washed five times with ice cold washing buffer containing 0.5 M NaCl. After harvesting, the plates were dried at 55° C. for 60 min, then we added scintillation fluid (Microscint 40, 40 microl in each well) and the amount of radioactivity on the filter was determined in Packard top-counter after shaking the plates for two hours at 200 rpm at room temperature.
Binding Buffer: 50 mM Tris-HCl pH 7.4 and 5 mM MgCl2×6H2O pH 7.4. Washing Buffer: 50 mM Tris-HCl pH 7.4 and 5 mM MgCl2×6H2O and 0.5 M NaCl pH 7.4.
Indirect measurement of affinity of H3R inverse agonists: twelve increasing concentrations (ranging from 10 μM to 0.3 nM) of the selected compounds were always tested in competition binding experiments using membrane of the human H3R—CHO cell line. […]
All compounds were tested at a single concentration in duplicate. […] Ki's were calculated from IC50 based on Cheng-Prusoff equation (Cheng, Y, Prusoff, W H (1973) Biochem Pharmacol 22, 3099-3108): Ki=IC50/[1+D/Kd] wherein D is the concentration of the radioligand and Kd is the binding constant for the radioligand binding to the receptor under the conditions used in the competition experiment.

histamine 3 receptor (H3R), sequence (Q9Y5N1 whole entry): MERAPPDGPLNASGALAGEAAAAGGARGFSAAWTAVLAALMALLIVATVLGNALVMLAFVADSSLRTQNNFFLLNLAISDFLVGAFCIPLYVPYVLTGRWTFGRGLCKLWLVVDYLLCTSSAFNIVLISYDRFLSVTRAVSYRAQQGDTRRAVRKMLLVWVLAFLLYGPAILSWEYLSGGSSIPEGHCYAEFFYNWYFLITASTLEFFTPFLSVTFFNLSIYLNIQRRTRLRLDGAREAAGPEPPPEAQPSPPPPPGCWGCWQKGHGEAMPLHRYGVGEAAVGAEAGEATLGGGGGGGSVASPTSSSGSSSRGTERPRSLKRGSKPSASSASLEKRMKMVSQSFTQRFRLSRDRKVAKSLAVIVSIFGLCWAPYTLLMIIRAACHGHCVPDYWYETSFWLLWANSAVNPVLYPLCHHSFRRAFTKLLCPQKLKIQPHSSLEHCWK

Row | Ki [nM] | SMILES
1 | 11.7 | CC(C)N1CCN(C(=O)c2ccc3c(c2)cc(C(=O)N2CCN(S(C)(=O)=O)CC2)n3-c2ccnc(Cl)c2)CC1 [Example 7, [1-(2-Chloro-pyridin-4-yl)-5-(4-isopropyl-piperazine-1-carbonyl)-1H-indol-2-yl]-(4-methanesulfonyl-piperazin-1-yl)-methanone]
2 | 5.7 | CC(C)N1CCN(C(=O)c2ccc3c(c2)cc(C(=O)N2CCN(S(=O)(=O)c4ccccc4)CC2)n3-c2ccnc(Cl)c2)CC1 [Example 17, (4-Benzenesulfonyl-piperazin-1-yl)-[1-(2-chloro-pyridin-4-yl)-5-(4-isopropyl-piperazine-1-carbonyl)-1H-indol-2-yl]-methanone]
3 | 7.5 | CC(C)N1CCN(C(=O)c2ccc3c(c2)cc(C(=O)N2CCN(C(=O)N4CCCCC4)CC2)n3-c2ccnc(Cl)c2)CC1 [Example 19, [1-(2-Chloro-pyridin-4-yl)-5-(4-isopropyl-piperazine-1-carbonyl)-1H-indol-2-yl]-[4-(piperidine-1-carbonyl)-piperazin-1-yl]-methanone]
